The text below walks through data of PMC9065678, “BI 1015550 is a PDE4B Inhibitor and a Clinical Drug Candidate for the Oral Treatment of Idiopathic Pulmonary Fibrosis” (Frontiers in Pharmacology, 2022).

Assay [1] deals with T1, PDE9A (Homo sapiens, UniProt O76083).
T1 construct: the full-length open reading frames of PDE1C; made in house; host or cells: SF9 insect cells (baculovirus, Bac-To-Bac, pFastbac)
Put plainly: Recombinant PDE activity, scintillation proximity assay: PDE9A. It is filed as biochemical. The note with it: substrate cGMP. The source says: For the preparation of human recombinant PDEs of interest, the Bac-To-Bac baculoviral expression system from Invitrogen (Carlsbad, CA, United States) was used according to the instruction manual. In short, the full-length open reading frames of PDE1C (National Center for Biotechnology Information Gene-Ref-Seq identifier NG_051183), PDE3A (NG_030033), PDE4A (NG_029594, AA 156–886), PDE4C (NG_029629), PDE7A (NG_029614), and PDE9A (NG_047067) were cloned into the plasmid vector pFastbac. For PDE4B and PDE4D, active site fragments were used (PDE4B NG_029038: AA 152–484, PDE4D NG_027957, AA 79–438). The plasmids were transformed into DH10Bac bacteria, SF9 insect cells were transfected with the bacmid DNA, and the resulting baculoviruses were stored and used for further rounds of infections. […] The protein content was measured and an equal volume of 87% (v/v) glycerol was added prior to freezing at −20°C. […] The reaction was stopped by addition of 50 µL of yttrium silicate scintillation proximity assay beads (17.8 mg/mL, 18 mM zinc sulfate in H2O) and the amount of produced [^3H]AMP/[^3H]GMP associated was determined using a Wallac Microbeta scintillation counter. […]
In general terms: SPA uses beads or plates that emit light when radiolabelled molecules are held near them.

The target in assay [2] is T2, PDE4A (Homo sapiens, UniProt P27815).
T2 construct: PDE4A (NG_029594, AA 156–886); made in house; host or cells: SF9 insect cells (baculovirus, Bac-To-Bac, pFastbac)
T2 sequence (P27815 156-886): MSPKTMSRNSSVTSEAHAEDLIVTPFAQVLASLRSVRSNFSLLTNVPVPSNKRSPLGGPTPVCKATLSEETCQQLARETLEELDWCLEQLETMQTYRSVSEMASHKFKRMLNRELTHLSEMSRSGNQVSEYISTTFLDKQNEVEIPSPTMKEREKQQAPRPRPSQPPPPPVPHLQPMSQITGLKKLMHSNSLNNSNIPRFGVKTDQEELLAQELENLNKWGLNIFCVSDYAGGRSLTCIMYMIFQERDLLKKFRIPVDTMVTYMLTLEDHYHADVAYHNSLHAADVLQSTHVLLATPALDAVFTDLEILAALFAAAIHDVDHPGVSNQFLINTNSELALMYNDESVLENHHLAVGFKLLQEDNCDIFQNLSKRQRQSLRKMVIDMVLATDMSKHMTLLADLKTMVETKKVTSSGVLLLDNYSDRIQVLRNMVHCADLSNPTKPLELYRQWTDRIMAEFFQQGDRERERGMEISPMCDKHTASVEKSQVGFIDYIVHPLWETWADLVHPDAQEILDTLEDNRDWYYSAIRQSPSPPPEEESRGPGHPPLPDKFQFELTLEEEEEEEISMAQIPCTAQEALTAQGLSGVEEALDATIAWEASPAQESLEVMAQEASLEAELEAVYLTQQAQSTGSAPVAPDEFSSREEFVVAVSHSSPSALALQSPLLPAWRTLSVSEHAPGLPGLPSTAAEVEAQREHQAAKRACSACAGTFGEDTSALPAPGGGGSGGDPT
The assay can be described thus: Recombinant PDE activity, scintillation proximity assay: PDE4A. It is filed as biochemical. The following applies: substrate [3H]cAMP, means from n independent experiments. On the procedure:
For the preparation of human recombinant PDEs of interest, the Bac-To-Bac baculoviral expression system from Invitrogen (Carlsbad, CA, United States) was used according to the instruction manual. […] The plasmids were transformed into DH10Bac bacteria, SF9 insect cells were transfected with the bacmid DNA, and the resulting baculoviruses were stored and used for further rounds of infections. For protein production, SF9 cells were infected until a cytopathic effect was visible (after about 72 h), the SF9 cells were harvested and broken up by 3 freeze/thaw cycles, and by shearing 10 times through a 0.1 mm cannula using a syringe. […] The Phosphodiesterase Scintillation Proximity Assays (TRKQ7090 for [^3H]cAMP, GE Healthcare Europe GmbH, Chalfont St Giles, United Kingdom, and TRKQ7100 for [^3H]cGMP, Perkin Elmer, Waltham, MA, United States) were performed essentially according to the instruction manual. […] Assay solutions containing recombinant baculoviral-expressed PDE (to give an activity of 5.000–20.000 cpm corresponding to 5–20% of total activity added), 50 mmol/L Tris/HCl pH 7.5, 8.3 mmol/L MgCl2, 1.7 mmol/L EGTA, and 10 µL radiolabeled substrate (0.05 µCi in H2O) were incubated for 1 h at 30°C (final volume 100 μL).

In assay [3] the test system is IPF-LF cells. Put plainly: bFGF plus IL-1β-induced proliferation of IPF lung fibroblasts (bromodeoxyuridine assay). It is filed as cell-based. As for the experimental part:
Fibroblasts from donors with IPF (IPF-LF) (Asterand, Detroit, MI, United States) were grown in fibroblast basal medium (CC-3131, Lonza Walkersville, Inc., Walkersville, MD, United States) supplemented with FGM-2 SingleQuot Kit Supplements and Growth Factors (CC-4126, Lonza). Cells were grown in a humidified incubator at 37°C and 5% CO2. All assays were performed at passage 7 or 8. For assay set-up, cells were seeded in fibroblast growth medium plus supplements in assay-relevant densities. For TGF-β-stimulated assays, cells were seeded at 4,500 cells per well in 96-well plates. Proliferation assays were performed in 96-well plates at an initial seeding cell density on day 0 of 2,000 cells per well. After 24-h, the cell culture medium was changed to starvation medium (fibroblast basal medium without supplements). After a 24-h starvation period, cells were pre-incubated for 30 min with different concentrations of BI 1015550 plus/minus different concentrations of nintedanib and/or 1 nmol/L PGE2 and stimulated with the assay-relevant stimulus for the indicated time in the presence of the compound.
IPF-LF cells were stimulated with bFGF (20 ng/mL) plus IL-1β (30 pg/mL). After 72 h of stimulation, 10-times concentrated bromodeoxyuridine was added and the cells were incubated for another 18 h (final concentration bromodeoxyuridine 10 μmol/L). Cell proliferation was assessed by bromodeoxyuridine assay (Roche, Mannheim, Germany) according to the instruction manual.

Assay [4] deals with LPS-stimulated TNF-α release. Put plainly: LPS-induced TNF-α release in rat whole blood. It is filed as cell-based. The note with it: LPS 10 µg/mL. As for the experimental part:
Heparinized whole blood was collected from the Aorta abdominalis of WI (Han) male rats (Charles River Laboratories, Sulzfeld, Germany) and from healthy male human donors, and treated with 1 µL (rat) or 2.5 µL (human) of BI 1015550 or vehicle [final DMSO concentration 0.5% (v/v)]. Final assay volumes were 200 μL (rat) and 500 μL (human). After incubation for 30 min at 37°C, 95% humidity, and 5% CO2, cultures were treated with LPS [final concentration 10 µg/mL (rat), 0.1 µg/mL (human)] or saline. After 7 h, plates were centrifuged at 3.200 × g at 4°C for 10 min and plasma was used for cytokine measurement. Meso Scale Discovery (MSD) (Rockville, MD, United States) rat and human pro-inflammatory panels were used for detection of TNF-α and IL-6 in rat plasma [diluted 1:2 (v/v)]) and human plasma [negative control undiluted, other samples diluted 1:200 (v/v)] according to the manufacturer’s instructions.

T1 sequence (O76083 whole entry): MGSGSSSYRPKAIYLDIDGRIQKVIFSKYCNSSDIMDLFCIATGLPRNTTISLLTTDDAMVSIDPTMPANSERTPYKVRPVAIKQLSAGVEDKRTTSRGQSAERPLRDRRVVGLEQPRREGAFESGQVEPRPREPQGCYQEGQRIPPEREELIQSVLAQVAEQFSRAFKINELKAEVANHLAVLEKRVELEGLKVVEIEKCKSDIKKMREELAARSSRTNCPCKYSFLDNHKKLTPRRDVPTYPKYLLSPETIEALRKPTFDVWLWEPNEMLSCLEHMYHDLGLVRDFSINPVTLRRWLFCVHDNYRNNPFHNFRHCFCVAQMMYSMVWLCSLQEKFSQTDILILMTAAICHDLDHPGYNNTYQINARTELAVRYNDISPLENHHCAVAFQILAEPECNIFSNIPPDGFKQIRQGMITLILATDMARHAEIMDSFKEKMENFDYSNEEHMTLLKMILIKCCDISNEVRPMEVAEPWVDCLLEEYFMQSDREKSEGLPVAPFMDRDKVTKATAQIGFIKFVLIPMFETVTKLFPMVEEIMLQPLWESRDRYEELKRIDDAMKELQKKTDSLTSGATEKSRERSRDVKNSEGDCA

Turning to `[O-][S+]1CCc2nc(N3CCC(c4ncc(Cl)cn4)CC3)nc(NC3(CO)CCC3)c21` (stereo not drawn) [BI 1015550], the IC50 in assay [1] is over 100000 nM; in assay [2], 248 nM; in assay [3] (IPF-LF, alone, read-out: IC50 bFGF plus IL-1β-induced cell proliferation) it was 255 nM; in assay [4], 91 nM. Besides, the “Additional inhibitory effects in combination, proliferation assay” value in assay [3] (combination with pirfenidone (100 µmol/L), data not shown) is recorded as “did not yield any additional inhibitory effects”. In addition, the “Extent of inhibition of TNF-α release” value in assay [4] is recorded as “completely inhibited”.
